The results in this text go back to ChEMBL document CHEMBL5126548, “Small-molecule MDM2 inhibitors in clinical trials for cancer therapy” (Eur J Med Chem, 2022).

Data set [1] is described as follows: Cmax in CB17SCID mouse at 125 mg/kg, po and measured upto 24 hrs. To be noted: in vivo. Also on record: dose 125 mg/kg, time < 24 hrs, route po. Format: ADME, organism-based.
Data set [2] can be described thus: AUC in CB17SCID mouse at 125 mg/kg, po and measured upto 24 hrs. Format: ADME, organism-based. Also on record: dose 125 mg/kg, time < 24 hrs, route po. To be noted: in vivo.
For data set [3], the target named is Tumour suppressor p53/oncoprotein Mdm2 (Homo sapiens, UniProt Q00987). The experiment in a line: Inhibition of recombinant human MDM2/p53 interaction. Format: protein assay.
Chain of Tumour suppressor p53/oncoprotein Mdm2 (P04637 whole entry): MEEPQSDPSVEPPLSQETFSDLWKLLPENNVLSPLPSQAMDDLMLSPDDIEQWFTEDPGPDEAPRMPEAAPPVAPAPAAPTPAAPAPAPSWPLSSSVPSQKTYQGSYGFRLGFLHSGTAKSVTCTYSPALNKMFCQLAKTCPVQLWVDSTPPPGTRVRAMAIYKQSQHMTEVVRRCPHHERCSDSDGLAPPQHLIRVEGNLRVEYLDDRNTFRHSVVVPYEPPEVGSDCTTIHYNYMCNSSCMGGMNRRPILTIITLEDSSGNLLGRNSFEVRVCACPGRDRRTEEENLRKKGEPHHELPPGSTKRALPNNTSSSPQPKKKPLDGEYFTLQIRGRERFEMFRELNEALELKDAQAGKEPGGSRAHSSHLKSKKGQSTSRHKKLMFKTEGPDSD
Chain of Tumour suppressor p53/oncoprotein Mdm2 (Q00987 whole entry): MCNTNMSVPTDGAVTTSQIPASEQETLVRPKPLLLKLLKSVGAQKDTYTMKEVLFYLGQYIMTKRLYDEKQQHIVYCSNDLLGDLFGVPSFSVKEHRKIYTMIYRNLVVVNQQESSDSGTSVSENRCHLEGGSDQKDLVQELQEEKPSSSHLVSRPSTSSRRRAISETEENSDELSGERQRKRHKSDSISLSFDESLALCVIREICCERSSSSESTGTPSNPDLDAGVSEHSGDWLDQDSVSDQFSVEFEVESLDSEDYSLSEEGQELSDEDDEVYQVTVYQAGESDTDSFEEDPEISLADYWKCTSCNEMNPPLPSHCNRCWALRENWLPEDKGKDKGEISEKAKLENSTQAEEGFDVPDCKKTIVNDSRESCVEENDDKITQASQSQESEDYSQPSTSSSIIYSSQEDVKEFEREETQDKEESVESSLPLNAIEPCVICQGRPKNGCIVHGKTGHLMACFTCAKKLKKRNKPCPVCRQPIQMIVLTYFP
A further data set has as its system IMR-5. The experiment in a line: Antiproliferative activity against human IMR-5 cells harboring wildtype TP53 assessed as reduction in cell viability and measured upto 72 hrs by XTT assay. Format: functional, cell-based. To be noted: IMR-5, 72 h. For orientation: Formazan colour is commonly taken as a measure of viable cells.
The next data set relates to IMR-32. Description: Antiproliferative activity against human IMR-32 cells harboring wildtype TP53 assessed as reduction in cell viability and measured upto 72 hrs by XTT assay. Format: functional, cell-based. To be noted: IMR-32, 72 h.
For the next data set, the system named is SH-SY5Y. The experiment in a line: Antiproliferative activity against human SH-SY5Y cells harboring wildtype TP53 assessed as reduction in cell viability and measured upto 72 hrs by XTT assay. Format: functional, cell-based.
The subject of another data set is SK-N-SH. Description: Antiproliferative activity against human SK-N-SH cells harboring wildtype TP53 assessed as reduction in cell viability and measured upto 72 hrs by XTT assay. The format is functional, cell-based.
Data set [4] can be described thus: Antiproliferative activity against human LA-N-5 cells harboring wildtype TP53 assessed as reduction in cell viability and measured upto 72 hrs by XTT assay. Format: functional, cell-based. The note with it: LA-N-5, 72 h.
Data set [5] in a line: Antiproliferative activity against human Kelly cells harboring TP53 mutant assessed as reduction in cell viability and measured upto 72 hrs by XTT assay. Format: functional, cell-based.
The nature of data set [6]: Oral bioavailability in Sprague-Dawley rat at 2 mg/kg by LC-MS/MS method. The note with it: in vivo. The format is ADME, organism-based.
The nature of data set [7]: Oral bioavailability in CD-1 mouse at 5 mg/kg by LC-MS/MS method. To be noted: in vivo. Format: ADME, organism-based.
The nature of data set [8]: Oral bioavailability in cynomolgus monkey at 2 mg/kg by LC-MS/MS method. Format: ADME, organism-based, Macaca fascicularis. To be noted: in vivo.
The nature of data set [9]: Oral bioavailability in Beagle dog at 2 mg/kg by LC-MS/MS method. The format is ADME, organism-based, Canis lupus familiaris. To be noted: in vivo.
A further data set deals with SJSA-1. The experiment in a line: animal or person. To be noted: Mus musculus, SJSA-1, po, read-out: TGI.
A further data set in a line: animal or person. The note with it: Homo sapiens, MHM, po, read-out: TGI.

Broadly, the Cmax is the peak of the concentration-time curve. As usually defined, the AUC is the area under the concentration-time curve, a measure of exposure. Usually IC50 stands for the concentration that gives 50% inhibition. Broadly, the bioavailability is dose-corrected exposure relative to a reference, in per cent.

Description for SJSA-1: Antitumor activity against human SJSA-1 xenografted Balb/c mouse assessed as tumor growth inhibition at 50 mg/kg,po administered daily by caliper method

In data set [1], `CCC[C@H]1N(C(=O)c2ncccc2C(F)(F)F)CCC[C@@]1(Oc1csc(C(F)(F)F)c1)C(=O)N1CCC(O)(c2ccccc2O[C@H](C)CCC2(C(=O)O)CCC2)CC1` had a Cmax of 40 µM. Also, the AUC at 24 h in data set [2] was determined as 200 µM·h.

`COc1ccccc1-n1nc2c(c1C(C)C)[C@H](c1ccc(Cl)cc1C)N(c1cc(Cl)cc(OCCN(C)C)c1)C2=O`: the IC50 in data set [3] was determined as 0.13 nM.

On to `CC1(C)CCC2(CC1)N[C@H](C(=O)N[C@@H]1CC[C@@H](C(N)=O)OC1)[C@H](c1ccnc(Cl)c1F)[C@]21C(=O)Nc2cc(Cl)ccc21`, for which the IC50 is 25.7 nM with IMR-5; 56.2 nM in the data set on IMR-32; 17.7 nM with SH-SY5Y; 21.9 nM with SK-N-SH; 44.1 nM in data set [4]; more than 2000 nM in [5].

With `CC(C)[C@@H](CS(=O)(=O)C(C)C)N1C(=O)[C@@](C)(CC(=O)O)C[C@H](c2cccc(Cl)c2)[C@H]1c1ccc(Cl)cc1` [NAVTEMADLIN], the bioavailability in data set [6] was more than 42%; in data set [7], more than 43%; in data set [8], more than 44%; in data set [9] it was 18%.

With `CCOc1cc(C(C)(C)C)ccc1C1=N[C@@](C)(c2ccc(Cl)cc2)[C@@](C)(c2ccc(Cl)cc2)N1C(=O)N1CCN(CCCS(C)(=O)=O)CC1` [RO-5045337], the inhibition in vivo at 50 mg/kg in the data set on SJSA-1 was found to be 74%; in “animal or person”, 69%.
